Data as given in patent US6737383B1, “Herbicidal oxadiazolidines” (priority 1999, dated 2004).

Tests used:
[1] = test system: cocklebur; experiment: Test B pre/postemergence cocklebur; type: in vivo, Xanthium strumarium
Outline: (§1)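 Test chemicals in a non-phytotoxic solvent mixture with surfactant were sprayed preemergence onto planted seeds and postemergence onto plants 2 to 18 cm tall (1- to 4-leaf stage). After twelve to sixteen days in a greenhouse, injury was visually rated against untreated controls from 0 (no effect) to 10 (complete control).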

[2] = test system: sugar beet; experiment: Test B pre/postemergence sugar beet; type: in vivo, Beta vulgaris
Outline: as §1

[3] = test system: smallflower flatsedge; experiment: Test B flood test smallflower flatsedge; type: in vivo, Cyperus difformis
Outline: (§2)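 Read-out is a visual response score from 0 (no effect) to 10 (complete control), assigned by comparison with untreated controls. Treatment was applied at the 2-leaf stage, and plants stayed in the greenhouse for twelve to sixteen days before scoring.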

[4] = test system: bamyardgrass; experiment: Test B flood test barnyardgrass; type: in vivo, Echinochloa crus-galli
Outline: as §2

[5] = Preemergence, Rate 62 g/ha, scale of 0 to 10 where 0 is no effect and 10 is complete control
[6] = Preemergence, Rate 250 g/ha, scale of 0 to 10 where 0 is no effect and 10 is complete control
[7] = Preemergence, Rate 500 g/ha, scale of 0 to 10 where 0 is no effect and 10 is complete control
[8] = Rate 62 g/ha, Postemergence, scale of 0 to 10 where 0 is no effect and 10 is complete control
[9] = Rate 125 g/ha, Postemergence, scale 0 to 10
[10] = Rate 125 g/ha, Preemergence, scale of 0 to 10 where 0 is no effect and 10 is complete control
[11] = Rate 500 g/ha, Postemergence, scale 0 to 10, 0 no effect, 10 complete control
[12] = Rate 62 g/ha, headed Pre-emergence (flood test species), scale 0 to 10 (0 no effect, 10 complete control)
[13] = Rate 125 g/ha, Pre-emergence, flood test species, scale 0 to 10 where 0 is no effect and 10 is complete control
[14] = Rate 250 g/ha, Pre-emergence, flood-test species, scale 0 to 10, 0 is no effect, 10 is complete control
[15] = Rate 500 g/ha, Pre-emergence, flood test species, scale 0 to 10 (0 no effect, 10 complete control)
[16] = Postemergence, Rate 125 g/ha, scale 0 to 10, 0 is no effect, 10 is complete control
[17] = Postemergence, Rate 250 g/ha, scale 0 to 10, 0 is no effect, 10 is complete control
[18] = Preemergence, Rate 62 g/ha, scale 0 to 10 (0 no effect, 10 complete control)
[19] = Rate 62 g/ha, flood test species, Pre-emergence, visual evaluation after twelve to sixteen days
[20] = Rate 125 g/ha, under heading Pre-emergence, flood test species, visual evaluation after twelve to sixteen days
[21] = Postemergence, Rate 500 g/ha, scale of 0 to 10 where 0 is no effect and 10 is complete control
[22] = Preemergence, Rate 125 g/ha, scale of 0 to 10 where 0 is no effect and 10 is complete control
[23] = Preemergence, Rate 250 g/ha, scale 0 to 10, 0 is no effect, 10 is complete control
[24] = Preemergence, Rate 500 g/ha, scale 0 to 10, 0 is no effect, 10 is complete control
[25] = Postemergence section (flood test species), Rate 500 g/ha, scale of 0 to 10 where 0 is no effect and 10 is complete control
[26] = Rate 62 g/ha, Postemergence (flood test species), scale of 0 to 10 where 0 is no effect and 10 is complete control
[27] = flood test species, listed under Postemergence, Rate 250 g/ha, scale 0 to 10, 0 is no effect, 10 is complete control
[28] = Postemergence, Rate 62 g/ha, scale 0 to 10, 0 is no effect, 10 is complete control
[29] = Postemergence, Rate 250 g/ha, scale 0 to 10, 0 no effect, 10 complete control
[30] = Preemergence, Rate 125 g/ha, scale 0 to 10 (0 no effect, 10 complete control)
[31] = Preemergence, Rate 500 g/ha, scale 0 (no effect) to 10 (complete control)
[32] = Rate 125 g/ha, Postemergence, scale 0 to 10, 0 no effect, 10 complete control
[33] = Rate 125 g/ha, Postemergence section (flood test species), scale 0 to 10, 0 no effect, 10 complete control
[34] = Rate 500 g/ha, listed under Postemergence (flood test species), scale 0 to 10, 0 no effect, 10 complete control
[35] = flood test, listed under Postemergence, Rate 250 g/ha, scale 0 to 10, 0 no effect, 10 complete control
[36] = Postemergence, Rate 125 g/ha, scale of 0 to 10 where 0 is no effect and 10 is complete control

## CC(C)N(C(=O)n1oc(=O)n(-c2cccnc2)c1=O)c1ccc(F)cc1 [Compound 234]
[1]; [5]
  Cocklebur plant response rating: 0
[1]; [6]
  Cocklebur plant response rating: 0
[1]; [7]
  Plant response rating, Cocklebur: 0
[1]; [8]
  Cocklebur plant response rating: 0
[1]; [9]
  Cocklebur plant response rating: 0
[1]; [10]
  Cocklebur plant response rating: 0
[1]; Rate 250 g/ha, Postemergence
  Plant response rating (0 to 10; 0 is no effect, 10 is complete control), Cocklebur: 0
[1]; [11]
  Cocklebur plant response rating: 3
[2]; [5]
  Sugarbeets plant response rating: 0
[2]; [6]
  Sugarbeets plant response rating: 0
[2]; [7]
  Plant response rating, Sugarbeets: 0
[2]; [8]
  Sugarbeets plant response rating: 0
[2]; [9]
  Sugarbeets plant response rating: 0
[2]; [10]
  Sugarbeets plant response rating: 0
[2]; Rate 250 g/ha, Postemergence
  Plant response rating (0 to 10; 0 is no effect, 10 is complete control), Sugarbeets: 0
[2]; [11]
  Sugarbeets plant response rating: 0
[3]; [12]
  S. Flatsedge plant response rating: 0
[3]; [13]
  S. Flatsedge plant response rating: 0
[3]; [14]
  S. Flatsedge plant response rating: 0
[3]; [15]
  S. Flatsedge plant response rating: 0
[4]; [12]
  Barnyardgrass plant response rating: 0
[4]; [13]
  Barnyardgrass plant response rating: 0
[4]; [14]
  Barnyardgrass plant response rating: 0
[4]; [15]
  Barnyardgrass plant response rating: 0

## CCOc1nc(C(F)(F)F)c(Cn2c(=O)on(C(=O)N(c3ccccc3)C(C)C)c2=O)s1 [Compound 379]
[1]; [16]
  Plant response rating, Cocklebur: 0
[1]; [17]
  Plant response rating, Cocklebur: 0
[1]; [18]
  Plant response rating, Cocklebur: 0
[1]; Preemergence, Rate 125 g/ha
  Cocklebur plant response rating (0 to 10 scale): 0
[1]; [6]
  Cocklebur plant response rating: 0
[1]; [7]
  Cocklebur plant response rating: 0
[1]; [8]
  Cocklebur plant response rating: 0
[1]; [11]
  Plant response rating, Cocklebur: 0
[2]; [16]
  Plant response rating, Sugarbeets: 0
[2]; [17]
  Plant response rating, Sugarbeets: 0
[2]; [18]
  Plant response rating, Sugarbeets: 0
[2]; Preemergence, Rate 125 g/ha
  Sugarbeets plant response rating (0 to 10 scale): 0
[2]; [6]
  Sugarbeets plant response rating: 0
[2]; [7]
  Sugarbeets plant response rating: 0
[2]; [8]
  Sugarbeets plant response rating: 0
[2]; [11]
  Plant response rating, Sugarbeets: 0
[3]; [19]
  Plant response rating, S. Flatsedge (0 to 10 scale, 0 is no effect, 10 is complete control): 0
[3]; [20]
  S. Flatsedge plant response rating (0 to 10 scale, 0 is no effect, 10 is complete control): 0
[3]; [14]
  S. Flatsedge plant response rating: 0
[3]; [15]
  S. Flatsedge plant response rating: 0
[4]; [19]
  Plant response rating, Barnyardgrass (0 to 10 scale, 0 is no effect, 10 is complete control): 0
[4]; [20]
  Barnyardgrass plant response rating (0 to 10 scale, 0 is no effect, 10 is complete control): 0
[4]; [14]
  Barnyardgrass plant response rating: 0
[4]; [15]
  Barnyardgrass plant response rating: 0

## CCOC(=O)C=C(Cn1c(=O)on(C(=O)N(c2ccc(F)cc2)C(C)C)c1=O)OCC [Compound 396]
[1]; [16]
  Plant response rating, Cocklebur: 0
[1]; [17]
  Plant response rating, Cocklebur: 0
[1]; [21]
  Cocklebur plant response rating: 0
[1]; [18]
  Plant response rating, Cocklebur: 0
[1]; [22]
  Plant response rating, Cocklebur: 0
[1]; [23]
  Cocklebur plant response rating: 0
[1]; [24]
  Cocklebur plant response rating: 0
[1]; [8]
  Cocklebur plant response rating: 0
[2]; [17]
  Plant response rating, Sugarbeets: 0
[2]; [21]
  Sugarbeets plant response rating: 3
[2]; [18]
  Plant response rating, Sugarbeets: 0
[2]; [22]
  Plant response rating, Sugarbeets: 0
[2]; [23]
  Sugarbeets plant response rating: 0
[2]; [24]
  Sugarbeets plant response rating: 2
[2]; [8]
  Sugarbeets plant response rating: 0
[3]; [25]
  S. Flatsedge plant response rating: 0
[3]; [26]
  S. Flatsedge plant response rating: 0
[3]; [27]
  Plant response rating, S. Flatsedge: 0
[4]; Postemergence (flood test), Rate 125 g/ha, scale 0 to 10, 0 is no effect, 10 is complete control
  Plant response rating, Barnyardgrass: 0
[4]; [25]
  Barnyardgrass plant response rating: 0
[4]; [26]
  Barnyardgrass plant response rating: 0
[4]; [27]
  Plant response rating, Barnyardgrass: 0

## Cc1cccc(C(C)C)c1-n1c(=O)on(C(=O)N(c2ccc(Cl)cc2)C(C)C)c1=O [Compound 64]
[1]; [28]
  Cocklebur plant response rating: 0
[1]; [29]
  Cocklebur plant response rating: 0
[1]; [18]
  Cocklebur plant response rating: 0
[1]; [30]
  Plant response rating, Cocklebur: 0
[1]; [6]
  Plant response rating, Cocklebur: 0
[1]; [31]
  Cocklebur plant response rating: 0
[1]; [32]
  Cocklebur plant response rating: 0
[1]; [11]
  Cocklebur plant response rating: 0
[2]; [28]
  Sugarbeets plant response rating: 0
[2]; [29]
  Sugarbeets plant response rating: 0
[2]; [18]
  Sugarbeets plant response rating: 0
[2]; [30]
  Plant response rating, Sugarbeets: 0
[2]; [6]
  Plant response rating, Sugarbeets: 0
[2]; [31]
  Sugarbeets plant response rating: 0
[2]; [32]
  Sugarbeets plant response rating: 0
[2]; [11]
  Sugarbeets plant response rating: 0
[3]; [28]
  S. Flatsedge plant response rating: 0
[3]; [33]
  S. Flatsedge plant response rating: 0
[3]; [34]
  S. Flatsedge plant response rating: 0
[3]; [35]
  S. Flatsedge plant response rating: 0
[4]; [28]
  Barnyardgrass plant response rating: 0
[4]; [33]
  Barnyardgrass plant response rating: 0
[4]; [34]
  Barnyardgrass plant response rating: 0
[4]; [35]
  Barnyardgrass plant response rating: 0

## CC(C)N(C(=O)n1oc(=O)n(-c2cccc3c2CCCC3)c1=O)c1ccc(F)cc1 [Compound 90]
[1]; [28]
  Cocklebur plant response rating: 1
[1]; [36]
  Cocklebur plant response rating: 3
[1]; [29]
  Cocklebur plant response rating: 3
[1]; [18]
  Cocklebur plant response rating: 0
[1]; [30]
  Plant response rating, Cocklebur: 0
[1]; [6]
  Plant response rating, Cocklebur: 0
[1]; [31]
  Cocklebur plant response rating: 0
[1]; [11]
  Cocklebur plant response rating: 5
[2]; [28]
  Sugarbeets plant response rating: 0
[2]; [36]
  Sugarbeets plant response rating: 0
[2]; [18]
  Sugarbeets plant response rating: 0
[2]; [30]
  Plant response rating, Sugarbeets: 0
[2]; [6]
  Plant response rating, Sugarbeets: 0
[2]; [31]
  Sugarbeets plant response rating: 0
[2]; Rate 250 g/ha, Postemergence, scale 0 to 10, 0 is no effect, 10 is complete control
  Plant response rating, Sugarbeets: 3
[2]; [11]
  Sugarbeets plant response rating: 3
[3]; Postemergence (flood test species), Rate 125 g/ha, scale of 0 to 10 where 0 is no effect and 10 is complete control
  S. Flatsedge plant response rating: 0
[3]; [28]
  S. Flatsedge plant response rating: 0
[3]; Rate 250 g/ha, Postemergence (flood test), scale 0 to 10, 0 is no effect, 10 is complete control
  Plant response rating, S. Flatsedge: 0
[3]; [34]
  S. Flatsedge plant response rating: 0
[4]; [28]
  Barnyardgrass plant response rating: 0
[4]; [33]
  Barnyardgrass plant response rating: 0
[4]; [34]
  Barnyardgrass plant response rating: 0
[4]; [35]
  Barnyardgrass plant response rating: 0

## Cc1cccc(C(C)C)c1-n1c(=O)on(C(=O)N(c2ccc(F)cc2)C(C)C)c1=O [Compound 65]
[1]; [28]
  Cocklebur plant response rating: 0
[1]; [29]
  Cocklebur plant response rating: 0
[1]; [18]
  Cocklebur plant response rating: 0
[1]; [30]
  Plant response rating, Cocklebur: 0
[1]; [6]
  Plant response rating, Cocklebur: 0
[1]; [31]
  Cocklebur plant response rating: 0
[1]; [32]
  Cocklebur plant response rating: 0
[1]; [11]
  Cocklebur plant response rating: 0
[2]; [28]
  Sugarbeets plant response rating: 0
[2]; [29]
  Sugarbeets plant response rating: 0
[2]; [18]
  Sugarbeets plant response rating: 0
[2]; [30]
  Plant response rating, Sugarbeets: 0
[2]; [6]
  Plant response rating, Sugarbeets: 0
[2]; [31]
  Sugarbeets plant response rating: 0
[2]; [32]
  Sugarbeets plant response rating: 0
[2]; [11]
  Sugarbeets plant response rating: 0
[3]; [28]
  S. Flatsedge plant response rating: 0
[3]; [33]
  S. Flatsedge plant response rating: 0
[3]; [34]
  S. Flatsedge plant response rating: 0
[3]; [35]
  S. Flatsedge plant response rating: 0
[4]; [28]
  Barnyardgrass plant response rating: 0
[4]; [33]
  Barnyardgrass plant response rating: 0
[4]; [34]
  Barnyardgrass plant response rating: 2
[4]; [35]
  Barnyardgrass plant response rating: 0
